Data from US20060135625A1, “Method of administering split doses of a vascular targeting agent” (priority 2002, published 2006).

Tests used:
[1] = test system: murine adenocarcinoma NT (CaNT) tumor; assay: in vitro clonogenic (colony-forming) assay of tumor cells isolated from treated CaNT tumor-bearing animals; format: in vivo, mice
Procedure: (§1) 1) Transplanted tumor model. A murine adenocarcinoma NT (“CaNT”) tumor was transplanted from a syngeneic donor and implanted subcutaneously onto the rear dorsum of 10-16 week old female CBA/Gy f TO mice, by injecting 0.05 ml of a crude cell suspension prepared by mechanical dissociation of the excised. Tumors were selected for treatment with the VTA CA4DP when the geometric mean diameter (“GMD”) reached 5-6.5 mm (150-300 mg), approximately 3-4 weeks after implantation.
(§2) In each of the following Examples 1-4, CA4DP (OXiGENE Inc, Watertown, Mass., USA) was dissolved in 0.9% saline at appropriate concentrations to allow each dose to be injected i.p. in 0.1 ml per 10 g body weight. 0.9% saline was used for control treatments.
To compare the anti-tumor effect of single and divided VTA dose scheduling, the survival of tumor cells isolated from a treated CaNT tumor-bearing animals was assessed by an in vitro clonogenic (colony-forming) assay, as described previously (Chaplin et al., Anticancer Research, 1999, 19: 189-196). Tumors were excised 18-24 h after CA4P injection. Two tumors were combined for each data point, weighed, minced with scissors and then disaggregated for 1 hour at 37° C. in an enzyme cocktail of 1 mg/ml pronase, 0.5 mg/ml DNase and 0.5 mg/ml collagenase. Following digestion, samples were passed through a 25G needle and a 35 μm filter to obtain a single cell suspension. Haemocytometer counts of trypan-blue excluding cells were made and known numbers of viable cells added to a feeder layer of heavily irradiated V79-379A Chinese hamster cells. After 7-10 days incubation, colonies were fixed, stained with methylene blue and counted. The data were calculated as surviving fraction per gram of tumor, which is a product of relative surviving fraction and relative cell yield per gram of tumor. Each experimental group was repeated at least 3 times, so that at least 6 tumors contribute to each data point.

[2] = test system: murine adenocarcinoma NT (CaNT) tumor; assay: tumor growth delay in CaNT tumor-bearing mice; format: in vivo
Procedure: as §1, §2
(§3) The anti-tumor effect of split dosing therapy was also assessed by an analysis of tumor growth delay in both CaNT and T138 tumor-bearing mice. For experiments involving the CaNT, dose groups comprised 5 to 6 animals, whereas for the T138, 10 to 15 animals were used. Following initial drug treatment, tumor growth was determined by measuring the diameter of each tumor in 3 orthogonal orientations two or three days each week.
The effect of repeated split VTA dosing therapy was also assessed by an analysis of tumor growth delay in both CaNT tumor-bearing mice. […] Repeated administration of total daily dose (50 mg/kg) 5 days a week for 2 weeks, produced a significant delay in tumor growth of approximately 2 days. Tumor growth delay was further improved by repeat administration of split dosing (2 doses of 25 mg/kg per day separated by a 6 hour interval), 5 days a week for 2 weeks (growth delay of approximately 5 days).

T138 tumor vasculature = assay: functional vascular volume (Hoechst 33342) in T138 tumors; format: in vivo, mice; conditions: 24 hours post-treatment
Procedure: (§4) 2) Spontaneous T138 tumor model. The T138 tumor-bearing mice (“T138”) spontaneously developed mammary tumors between 5 and 18 months of age due to genetic predisposition.
as §2
The effect of VTA dose splitting on the tumor vascular response was also investigated in both CaNT and T138 tumor types, by measuring the functional vascular volume at 24 hours following treatment with single or split doses of CA4DP. Functional vascular volume is defined as the volume of tumor tissue perfused by tumor blood vessels, and is measured using the fluorescent DNA-binding dye Hoechst 33342 (Sigma-Aldrich Company Ltd., Dorset, UK) (Smith et al, British Journal of Cancer, 1988, 57: 247-253). […] Functional vessels were identified by the fluorescent outline of perivascular tissue and vascular volumes were determined using a random point scoring system based on that described by Chalkley (Chalkley, J. Natl Cancer Inst., 1943, 4: 47-53). At least 100 fields were scored at each of the three tumor levels and the results for treated tumors were expressed as a percentage of control values.

[3] = test system: spontaneous T138 mammary tumors; assay: tumor growth delay in T138 tumor-bearing mice; format: in vivo
Procedure: as §4, §2, §3

CaNT tumor vasculature = assay: functional vascular volume (Hoechst 33342) in CaNT tumors; format: in vivo, mice; conditions: for reduction in perfused vascular volume: CaNT, 24 hours post-treatment
Procedure: as §1, §2
The effect of VTA dose splitting on the tumor vascular response was also investigated in both CaNT and T138 tumor types, by measuring the functional vascular volume at 24 hours following treatment with single or split doses of CA4DP. Functional vascular volume is defined as the volume of tumor tissue perfused by tumor blood vessels, and is measured using the fluorescent DNA-binding dye Hoechst 33342 (Sigma-Aldrich Company Ltd., Dorset, UK) (Smith et al, British Journal of Cancer, 1988, 57: 247-253). The dye was dissolved in 0.9% saline at 6.25 mg/ml and injected i.v. at a dose of 10 mg/kg at 24 hours post-treatment. Tumors were excised and frozen 1 minute later. Sections were cut at three levels and observed under UV illumination. Functional vessels were identified by the fluorescent outline of perivascular tissue and vascular volumes were determined using a random point scoring system based on that described by Chalkley (Chalkley, J. Natl Cancer Inst., 1943, 4: 47-53). At least 100 fields were scored at each of the three tumor levels and the results for treated tumors were expressed as a percentage of control values.

[4] = test system: microtubule assembly in tumor endothelium; conditions: cited from earlier work
[5] = human plasma; cited from earlier work
tubulin = conditions: U.S. Pat. No. 4,996,237; cited from earlier work

Compound | cell killing (surviving fraction of tumor cells) ([1]; two equal doses of 100 mg/kg i.p. separated by 1-6 hours, compared with a single 200 mg/kg dose, tumors excised 18-24 h after injection) | cell killing (surviving fraction of tumor cells) ([1]; two equal doses of 100 mg/kg, time interval between doses 2 to 4 hours (p<0.05)) | cell killing (surviving fraction of tumor cells) ([1]; unequal doses separated by 4 hours, compared with equal doses) | tumor growth delay ([2]; CaNT mice, single 200 mg/kg dose i.p.) | tumor growth delay ([2]; CaNT mice, two equal doses of 100 mg/kg separated by 3 hours) | tumor growth delay ([2]; CaNT, repeated split dosing, 2 doses of 25 mg/kg per day separated by 6 hours, 5 days a week for 2 weeks) | tumor growth delay ([2]; CaNT, repeated total daily dose 50 mg/kg, 5 days a week for 2 weeks) | effect on tumor growth relative to control ([2]; CaNT, single dose 50 mg/kg) | reduction of perfused vascular volume (T138 tumor vasculature; T138, single dose 200 mg/kg) | amount of perfused vascular tissue, of the control value (T138 tumor vasculature; T138, two split doses of 100 mg/kg) [%] | tumor growth delay ([3]; single dose of 500 mg/kg) | tumor growth delay ([3]; two equal doses of 250 mg/kg separated by 3 hours) | reduction in perfused vascular volume (CaNT tumor vasculature; single 50 mg/kg dose) [%] | reduction in perfused vascular volume (CaNT tumor vasculature; two 25 mg/kg doses separated by 3 hours) [%] | reducing the fraction of perfused vascular volume (CaNT tumor vasculature; two equal split doses compared with a single dose, observed in both CaNT and T138 tumor models) | inhibition of microtubule assembly [4] | solubility [5] | tubulin binding activity (tubulin)
COc1ccc(/C=C\c2cc(OC)c(OC)c(OC)c2)cc1OP(=O)([O-])[O-].[Na+].[Na+] [CA4DP, Combretastatin A-4 Disodium Phosphate Prodrug] | significantly more cell killing | most pronounced | less effective than equal doses of treatment | did not delay growth relative to control | approximately 3 days | approximately 5 days | approximately 2 days | only minimal effects on tumor growth | completely ineffective | 50 | no effect on tumor growth | approximately 4 days | 40 | 80 | significantly more effective than a single dose | potent inhibitor of microtubule assembly | – | –
COc1ccc(/C=C\c2cc(OC)c(OC)c(OC)c2)cc1O [CA-4, Combretastatin A-4] | – | – | – | – | – | – | – | – | – | – | – | – | – | – | – | – | insolubility | found to have tubulin binding activity
